One series has as its system HIV-1 NL4-3 Ba-L. The experiment in a line: microbe, parasite or virus in culture. Type of series: cell-based. The following applies: for inhibition of HIV-1 replication (in words): U87-CD4-CCR5 cells, serial 1:2 dilutions from 10 µM. As to the method:
Compounds were first dissolved in DMSO to reach a concentration of 20 mM. They were further diluted to a 200 µM working stock and then further diluted to reach a starting concentration of 10 µM in the culture plate. U87-CD4-CCR5 cells were seeded in quadruplicate at 4000 cells/well in a final volume of 100 µL. The next day, 24 µL of the compound was added in serial 1:2 dilutions to the cells. Two hours later, 25 µL of infectious virus (NL4-3 Ba-L) were added to the cells with a TCID50 of 250. AZT at 10 µM was included as an inhibition control. The medium was replenished in the presence of compounds once every 3 to 4 days. The supernatant was collected every 3–4 days and analyzed for virus production by an in-house p24 capture ELISA. IC50 was calculated using “Quest Graph™ IC50 Calculator” (AAT Bioquest, Inc., https://www.aatbio.com/tools/ic50-calculator). Cytotoxicity of the compound was tested on U87-CD4-CCR5 cells in parallel by MTT assay (at the same protocol as in Sect. 3.5 but after 11 days of incubation))[39].

The subject of series [1] is HIV-1 reverse transcription (pol viral DNA). The experiment in a line: qPCR quantification of reverse transcribed viral DNA in U87-CD4-CCR5 cells. Format: cell-based. The conditions noted are these: 10 µM, cells preincubated, DNA extracted 48 h post-infection. In general terms: Real-time PCR tracks product formation cycle by cycle.
Experimental: U87-CD4-CCR5 cells were plated in a 24-wells plate at 1.25 × 10^5 cells per well. […] Total DNA was extracted 48 h post-infection using the AllPrep DNA/RNA Mini Kit (Qiagen, Venlo, Netherlands). […] The following program was used in the LightCycler 480 Real-Time PCR System (Roche, Basel, Switzerland): pre-incubation: 95 °C for 3 min, pre-amplification: 2 cycles of 95 °C for 15 s and 49 °C for 15 s, amplification: 40 cycles of 95 °C for 10 s, 58 °C for 20 s, 72 °C for 30 s, melting curve stage: 95 °C for 5 s, 55 °C for 1 min and then 97 °C with acquisition every 10 °C, cooling stage: 40 °C for 10 s. Serial dilution of the 8E5 cell line which contains 1 copy of HIV-1 proviral DNA per cell was used as a standard curve for viral RT products [46]. […] Results were calculated as the number of copies of Pol per copy of β-actin. Statistical analysis was performed using an unpaired, two-tailed, Mann–Whitney test with GraphPad Prism 7.0 software. Tests were performed in quadruplicate, in two independent experiments.
Series [2] is described as follows: Cytotoxicity in murine macrophages (MTT). Format: cell-based. The conditions noted are these: mouse, J774.1 murine macrophages; Fig. 2 toxicology summary. As to the method: (§1) TZM-bl cells, U87-CD4-CCR5, murine macrophages (J774.1), and THP-1 monocytes (ATCC®TIB-202™) were grown following ATCC recommendations. Cells were seeded in a 96-well plate (10^4 cells in 200 µL culture medium) and incubated at 37 °C in a 5% CO2 atmosphere for 48 h, to allow cell adhesion before drug testing. For stimulation (THP-1 monocytes), cells were incubated with 100 nM of phorbol 12-myristate 13-acetate (PMA) for 48 h. […] A vehicle for control (0.4% DMSO) and negative wells (cells in medium) was used in each test. […] After removing the medium, formazan crystals were dissolved in 180 µL of DMSO and 20µL of MTT buffer (0.1 M glycine, 0.1 M NaCl, 0.5 mM EDTA, pH 10.5), and the absorbance at 560 nm was measured. […] Tests were performed in triplicate, in two independent experiments.

Series [3] deals with murine macrophages (J774.1). In words: Cytotoxicity in murine macrophages (MTT). Format: cell-based. The conditions noted are these: 50 µM, 24 h. As to the method: as §1
The target of series [4] is T1, HIV-1 CA (Human immunodeficiency virus type 1 group M subtype B, UniProt P12493). In words: HIV-1 CA assembly inhibition assay (absorbance at 340 nm). Type of series: biochemical. Further details: the capsid protein (CA) of the Gag polyprotein; made in house; host or cells: Escherichia coli BL21(DE3) pLysS. The following applies: compounds at 25 or 50 µM, CA 5 mg/mL, 30 min. As to the method:
The CA assembly assay was performed in a final volume of 70 µL in 384-well plates, with a final concentration of 5 mg/mL of purified recombinant HIV-1 CA in Phosphate/NaCl Buffer (NaH2PO4/Na2HPO4 50 mM, NaCl 100 mM, pH 7.4), as described for FIV CA [27, 31]. Absorbance was measured at 340 nm every 30 s in a multiplate reader VarioskanTM Flash Multimode Reader (Thermo Scientific, MA, US) at 37 °C for 30 min. The compounds were tested at a fixed initial dose of 25 or 50 µM (at 0.5% DMSO [v/v]) by adding 1 µL of the concentrated ligand to the well before starting the measurement. The controls were CA at 5 mg/mL in only 0.5% DMSO [v/v] and CA without DMSO. The criteria to select active compounds were the observation of at least 50% of assembly inhibition at these doses, based on the reduction of the OD value at 340 nm at the plateau value compared to the controls.

Series [5] in a line: Solubility observed in the assays. Format: physicochemical. The conditions noted are these: for solubility at high concentrations (in words): HIV-1 replication assay.
For the next series, the system named is mice. The following applies: cited from earlier work.
For series [6] the following is noted: cited from earlier work.
Series [7] concerns human embryonic kidney cells. Further details: method as in PMID 25512408, PMID 30393786, PMID 24749923, PMID 26492824. The following applies: read-out: EC50 in human embryonic kidney cells (cytotoxicity); cited from earlier work.
The test system of another series is HIV-1. The conditions noted are these: Table 1, PF74, literature value; read-out: IC50 in U87; cited from earlier work.
The target in series [8] is HIV-1 CA. The conditions noted are these: Table 1, PF74, literature value; read-out: Binding affinity; cited from earlier work.
The test system of the next series is U87 cells. The conditions noted are these: cited from earlier work.
The test system of a further series is human MT4. The following applies: cited from earlier work.
In a further series the test system is human TZM-bl. The following applies: cited from earlier work.
For series [9] the following is noted: human, microsomes; cited from earlier work.
The target in series [10] is T1, HIV-1 CA. Further details: the capsid protein (CA) of the Gag polyprotein; made in house; host or cells: Escherichia coli BL21(DE3) pLysS; method as in PMID 30393786. The conditions noted are these: PF74 data from the literature, same condition, cited from earlier work.
Details of series [11]: method as in PMID 25512408, PMID 30393786, PMID 24749923, PMID 26492824. The conditions noted are these: cited from earlier work.
The target in series [12] is T1, HIV-1 CA. In words: Binding to HIV-1 CA by isothermal microcalorimetry (ITC). Further details: the capsid protein (CA) of the Gag polyprotein. The conditions noted are these: 200 µM. As to the method: The affinity of compound 696 for HIV-1 CA in vitro was measured by microscale thermophoresis (MST) as described previously for FIV CA [31]. Due to its intrinsic autofluorescence interfering with MST, the binding of compound 314 to CA was measured using isothermal microcalorimetry (ITC) with a Microcal iTC200 calorimeter (Malvern Instruments, Worcestershire, UK). The calorimeter cell contained 200 µL of recombinant HIV-1 CA (kind gifted by Drs Verrier and Coiffier) at 0.78 mg/mL in phosphate buffer (NaH2PO4/Na2HPO4) 50 mM pH 7.5, NaCl 100 mM, 1% DMSO [v/v]. Compound 314 at 200 µM was then injected sequentially into the calorimeter cell (injection #1: 1 µL, injections #2-#20: 2 µL) at 120 s intervals. Data were analyzed using the OriginLab8.5® software according to the manufacturer’s instructions.

Structures are written as SMILES. “Also recorded” adds a separate entry of the source. Where two headings read alike, the source gives them in different places. Where only a bound is given, the exact number is not on record here.

As usually defined, the EC50 is the midpoint of the concentration-response curve. A word on the IC50: it is the concentration needed to halve the response being measured.

With `Cc1cn([C@H]2C[C@H](N=[N+]=[N-])[C@@H](CO)O2)c(=O)[nH]c1=O` [AZT, Zidovudine, reference compound], the p24 production result in the series with HIV-1 NL4-3 Ba-L (AZT 10 µM inhibition control) is “No p24 production was detected”. Moreover, in series [1], the “inhibition of HIV-1 reverse transcription (pol viral DNA by qPCR)” value is “efficient inhibition”.
Molecule `CCOC(=O)c1n(Cc2ccc(N(C)C)cc2)c2ccc([N+](=O)[O-])cc2[n+]1[O-]` [compound 553] returned an EC50 in series [2] of less than 50 µM. Further, in series [3], the “unspecific cytotoxicity in murine macrophages” value turned out to be 100%. Also, the “interference with the assembly of HIV-1 CA in vitro” value (“interference” below) on HIV-1 CA [4] was “interference with the assembly”.
Consider `CC(/C=N/N1CCSCC1)=C\c1ccco1` [compound 878], for which the “inhibition of HIV-1 replication (in words)” value (from here on “inhibition … (in words)”) in the series on HIV-1 NL4-3 Ba-L is “trend towards inhibition”. In series [2], this molecule came in with a concentration for a half-maximal effect (EC50) of 50 µM. Moreover, in [5], the “solubility at high concentrations (in words)” value is reported as “solubility problems”. Moreover, the “interference” value at HIV-1 CA [4] is “interference with the assembly”.
`C=CCn1c(-c2ccc3ccccc3c2)cs\c1=N/N=C/C=C/c1ccco1` [compound 305]: in series [2], the half-maximal effective concentration (EC50) turned out to be 50 µM. The “LD50 in mice (oral acute toxicity)” value with mice was 413 mg/kg. Further, the “AMES Test (mutagenicity)” value in series [6] is given as “non mutagenic”. In addition, the “interference” value on HIV-1 CA [4] was “interference with the assembly”.
For the molecule `Cc1[nH]c2ccccc2c1CC(=O)NC(Cc1ccccc1)C(=O)N(C)c1ccccc1` (centres unmarked) [PF74], the EC50 in series [7] is more than 50 µM; in the series with U87 cells, 75 µM; in the series on human MT4, 70 µM; with human TZM-bl, 47 µM; with human TZM-bl (read-out: EC50 in TZM-bl cells (μM) 48hs, Table 1, PF74, 48hs, literature value) it was 23.5 µM. Also, the half-inhibitory concentration (IC50) in the series on HIV-1 was 60 nM. Also, the Kd at HIV-1 CA [8] was 60 to 90 nM. For the same molecule, the “Metabolic stability, half-life (t1/2)” value in [9] was “Human liver microsomes, the half-life (t1/2) less than 1 min”. Moreover, the “Effect in p24 multimerization in vitro” value on HIV-1 CA [10] is listed as “accelerated”; at HIV-1 CA [10] (listed as C00001), “acceleration”.
On to `C=CCn1c(C(=O)O)cs/c1=N\N=C\c1ccc(/C=N/N=c2\scc(C(=O)O)n2CC=C)cc1` [compound 1310], for which the “inhibition … (in words)” value with HIV-1 NL4-3 Ba-L was “trend towards inhibition”. In [2], this molecule returned a concentration giving a half-maximal response (EC50) of more than 50 µM. The “solubility at high concentrations (in words)” value in [5] was “solubility problems”. For the same molecule, on HIV-1 CA [4], the “interference” value is “interference with the assembly”.
For the molecule `C=CCn1c(C(=O)N2CCN(C/C=C/c3ccccc3)CC2)cs/c1=N/N=C\C=C\c1ccco1` [compound 314], the “inhibition … (in words)” value with HIV-1 NL4-3 Ba-L is listed as “clear dose–response inhibition; also recorded: inhibition only at 10 µM”. Besides, in series [2], the concentration giving a half-maximal response (EC50) was 40 µM. Moreover, in series [5] (pH 7.4, CA assembly assay, read-out: insolubility at concentrations), the solubility was more than 10 µM. In the series on mice (Table S1, 314, not marked as TEST-calculated, Fig. 2 gives mice), the “Oral Rat LD50” value is more than 2000 mg/kg. Besides, the “LD50 in mice (oral acute toxicity)” value in the series with mice is 2000 mg/kg. Further, the “AMES Test (mutagenicity)” value in series [6] is listed as “non mutagenic; also recorded: no mutagenicity”. The “genotoxicity by Micronucleus Test” value in series [11] is recorded as “Not genotoxic; also recorded: no genotoxicity”. Moreover, the “specific binding for HIV-1 CA” value on HIV-1 CA [12] was “no specific binding”.

(Values after article PMC9241302, “Identification of 2-(4-N,N-Dimethylaminophenyl)-5-methyl-1-phenethyl-1H-benzimidazole targeting HIV-1 CA capsid protein and inhibiting HIV-1 replication in cellulo” (BMC Pharmacology & Toxicology, 2022).)
